Assay results published in the supplement of paper PMC13380429.

Legend:
Conditions in all cases: 72 h
[1] = system: Vero E6; experiment: cell viability relative to DMSO; higher = less toxic
[2] = system: U2OS; experiment: as above
[3] = system: Calu-3; experiment: as above
[4] = system: HepG2; experiment: as above
[5] = system: Caco-2; experiment: as above
[6] = system: Vero E6; experiment: relative viability EC50 (midpoint between 100% and the lowest measured viability); higher = less toxic
[7] = system: U2OS; experiment: as above
[8] = system: Calu-3; experiment: as above
[9] = system: HepG2; experiment: as above
[10] = system: Caco-2; experiment: as above
[11] = system: Vero E6; experiment: drug sensitivity score (DSS) for viability; higher = more toxic; extreme values may be limits of the assay
[12] = system: U2OS; experiment: as above
[13] = system: Calu-3; experiment: as above
[14] = system: HepG2; experiment: as above
[15] = system: Caco-2; experiment: as above

Row | Compound | cell viability ([1]; 1 nM) [%] | cell viability ([1]; 10 nM) [%] | cell viability ([1]; 100 nM) [%] | cell viability ([1]; 1000 nM) [%] | cell viability ([1]; 10000 nM) [%] | cell viability ([2]; 1 nM) [%] | cell viability ([2]; 10 nM) [%] | cell viability ([2]; 100 nM) [%] | cell viability ([2]; 1000 nM) [%] | cell viability ([2]; 10000 nM) [%] | cell viability ([3]; 1 nM) [%] | cell viability ([3]; 10 nM) [%] | cell viability ([3]; 100 nM) [%] | cell viability ([3]; 1000 nM) [%] | cell viability ([3]; 10000 nM) [%] | cell viability ([4]; 1 nM) [%] | cell viability ([4]; 10 nM) [%] | cell viability ([4]; 100 nM) [%] | cell viability ([4]; 1000 nM) [%] | cell viability ([4]; 10000 nM) [%] | cell viability ([5]; 1 nM) [%] | cell viability ([5]; 10 nM) [%] | cell viability ([5]; 100 nM) [%] | cell viability ([5]; 1000 nM) [%] | cell viability ([5]; 10000 nM) [%] | relative viability EC50 [6] [µM] | relative viability EC50 [7] [µM] | relative viability EC50 [8] [µM] | relative viability EC50 [9] [µM] | relative viability EC50 [10] [µM] | drug sensitivity score [11] | drug sensitivity score [12] | drug sensitivity score [13] | drug sensitivity score [14] | drug sensitivity score [15]
1 | Cc1cccc(Oc2cnc(=O)[nH]c2)c1 [tolimidone] | 108 | 95.4 | 90.3 | 95.7 | 91.2 | 103 | 98.4 | 103 | 99.9 | 104 | 108 | 93.8 | 92.2 | 99.7 | 95.8 | 111 | 95.4 | 80.8 | 94.1 | 98 | 111 | 95.7 | 94.8 | 95.9 | 102 | > 10 | > 10 | > 10 | > 10 | > 10 | 0 | 0 | 0 | 0 | 0
2 | Nc1ccn([C@H]2C[C@H](O)[C@@H](CO)O2)c(=O)n1 [torcitabine] | 104 | 95.7 | 90.2 | 95.2 | 101 | 102 | 106 | 99.1 | 104 | 95.5 | 100 | 94.6 | 91.9 | 99.9 | 85.6 | 105 | 94.3 | 94.6 | 104 | 98.8 | 105 | 95 | 101 | 97.1 | 86.5 | > 10 | > 10 | > 10 | > 10 | > 10 | 0 | 0 | 0 | 0 | 0.3
3 | CCCCNc1c(C(=O)OCC)c(C)nc2c1cnn2CC [tracazolate] | 93 | 97.7 | 96.9 | 96.7 | 96.5 | 101 | 93.2 | 102 | 97.7 | 93.6 | 101 | 85.1 | 98.6 | 102 | 86.4 | 97.6 | 104 | 92.5 | 106 | 99.3 | 93.3 | 96.1 | 97.2 | 92.7 | 101 | > 10 | > 10 | > 10 | > 10 | > 10 | 0 | 0 | 0.1 | 0 | 0
4 | O=C(Nc1ccc(Br)cc1)c1cc(Br)cc(Br)c1O [tribomsalan] | 93.5 | 100 | 91.1 | 93.7 | 98.6 | 96.6 | 98 | 96 | 102 | 96.4 | 94.4 | 92.2 | 93.2 | 102 | 91.2 | 102 | 104 | 94.5 | 99.7 | 82.7 | 90.7 | 90.3 | 94.7 | 105 | 76.3 | > 10 | > 10 | > 10 | > 10 | > 10 | 0 | 0 | 0 | 0.4 | 0.6
5 | O=c1c2ccccc2oc2ccccc12 [xanthone] | 104 | 100 | 101 | 99.1 | 95.9 | 101 | 94.9 | 99 | 97.9 | 100 | 95.3 | 96.5 | 103 | 104 | 104 | 108 | 93.8 | 93.5 | 110 | 93.6 | 102 | 98.6 | 101 | 95.1 | 106 | > 10 | > 10 | > 10 | > 10 | > 10 | 0 | 0 | 0 | 0 | 0
6 | C=CCCCCCCCCC(=O)[O][Zn][O]C(=O)CCCCCCCCC=C [zinc-undecylenate] | 105 | 95.9 | 94.8 | 98.5 | 93.9 | 97.7 | 98.8 | 98.4 | 95.1 | 99.1 | 95.7 | 100 | 101 | 95.6 | 116 | 102 | 98.8 | 99.3 | 100 | 92 | 94.4 | 96.3 | 98.2 | 96.6 | 86.9 | > 10 | > 10 | > 10 | > 10 | > 10 | 0 | 0 | 0 | 0 | 0.3
